Source: PMC9299640, “Incorporation of β‐Alanine in Cu(II) ATCUN Peptide Complexes Increases ROS Levels, DNA Cleavage and Antiproliferative Activity” (Chemistry (Weinheim an Der Bergstrasse, Germany), 2021)

Columns and labels:
CT-DNA = assay: DNA melting curves by UV/VIS spectroscopy; type: binding, calf
HCT116 cells = assay: Cellular uptake of Cu by ICP-MS; type: cell-based, human; conditions: 70 µM, 24 h, 37 °C, 5% CO2, 4 × 10^5 cells/well, HNO3 lysis, corrected for cell-free wells, n = 3
Protocol: We aimed to correlate the antiproliferative activity to the accumulation of Cu in HCT116 cells. Therefore, cells were treated for 24 h with complexes Cu−GGH, 1, 3, 4 and CuCl2 (70 μM), and the Cu content of the samples was determined by ICP‐MS (Table S13). […] The higher Cu contents probably lead to enhanced oxidative stress levels in cells, which consequently results in higher antiproliferative activity.
The antiproliferative activity of selected Cu(II) ATCUN complexes was investigated towards different tumor cell lines (HCT116, NCI-H460, SiHa and SW480 cells) and expressed as the IC50 values. Additionally, cellular uptake studies in HCT116 tumor cells were carried out and the amount of Cu was determined with inductively coupled plasma mass spectrometry (ICP-MS).
Table S13. […]
with 0.4% sulforhodamine B (Sigma-Aldrich) in 1% acetic acid for 30 min in the dark at room temperature and then washed with 1% acetic acid to remove unbound dye. The stain was dissolved in unbuffered Tris base (10 mM, Serva) for 30 min on a plate shaker in the dark and quantified on a BioTek EL808 microplate reader at an absorbance of 490 nm with a reference wavelength of 450 nm to determine the percentage of cell-growth inhibition by determining the absorbance of each sample relative to a negative (no inhibitor) and a no-growth control (day 0). […]

[Cl][Cu][Cl] [CuCl2, reference compound]
ΔTm relative to CT-DNA (CT-DNA; 2.5 µM complex or CuCl2, CT-DNA 50 µM (ref. Tm 78.3 °C), MOPS 50 mM pH 7.4): 3.2 °C | Tm of CT-DNA after treatment (CT-DNA; 2.5 µM complex or CuCl2, CT-DNA 50 µM, MOPS 50 mM pH 7.4, 260 nm, 0.5 °C/min, Cu(II):peptide 1:1.05): 81.5 °C | accumulated Cu in HCT116 (HCT116 cells): 0.754 ± 0.010 μg/4 × 10^5 cells
